Results as given in patent US20190105367A1, “ANTIMICROBIAL 4-OXOQUINOLIZINES” (Emergent Product Development Gaithersburg Inc., priority 2011, published 2019).

Experiments:
Type in all cases: cell-based, Acinetobacter baumannii
A. baumannii J2 = assay: MIC without and with sub-inhibitory polymyxin B (Example 4); settings: A. baumannii J2
A. baumannii A390 [1] = assay: as above; settings: A. baumannii A390
A. baumannii A387 [2] = assay: as above; settings: A. baumannii A387
A. baumannii A14 [3] = assay: as above; settings: A. baumannii A14, 2nd experiment
A. baumannii A401 = assay: as above; settings: A baumannii A 401; for MIC: 2nd experiment
A. baumannii NCTC 13301 [4] = assay: as above; settings: A. baumannii NCTC 13301, 1st experiment
A. baumannii A489 = assay: Preliminary MBC without and with sub-inhibitory polymyxin B (Example 4); settings: A. baumannii A489, preliminary MBC; for MBC: 2nd experiment
A. baumannii A387 [5] = assay: as above; settings: for MBC: 2nd experiment
A. baumannii A14 [6] = assay: as above; settings: 2nd experiment
In short: (§1)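 Bactericidal endpoint scored visually on plates incubated at 37° C (18-20 hours): the lowest concentration where growth fell about 90% versus the positive control, generally leaving one colony or none.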

A. baumannii A473 = assay: as above; settings: for MBC: 2nd experiment
In short: as §1

A. baumannii A390 [7] = assay: as above; settings: for MBC: 2nd experiment
In short: as §1

A. baumannii NCTC 13301 [8] = assay: as above; settings: A. baumannii NCTC 13301, preliminary MBC; for MBC: 2nd experiment
In short: as §1

A. baumannii A329 = assay: MIC without and with sub-inhibitory polymyxin B (Example 4); settings: A. baumannii A329
[9] = +[…] polymyxin B, 1st experiment
[10] = without polymyxin B, 1st experiment
[11] = ratio, PB 0.06 μg/ml, 1st experiment

Substance: 8-[(3S)-3-aminocyclopentyl]-1- cyclopropyl-7-fluoro-9-methyl- 4-oxo-quinolizine-3-carboxylic acid [Compound 10, reference compound]
- MIC without PB/MIC + PB (A. baumannii J2; +[…] PB, 2nd experiment): 8
- MIC +[…] PB (A. baumannii J2; [9]): 1 µg/mL
- MIC without PB/MIC + PB (A. baumannii J2; ratio, PB […], 1st experiment): 2
- MIC (A. baumannii J2; without PB, 2nd experiment): 2 µg/mL
- MIC without PB (A. baumannii J2; [10]): 2 µg/mL
- MIC (A. baumannii A390 [1]; +0.06 μg/ml PB, 2nd experiment): 0.5 µg/mL
- MIC without PB/MIC + PB (A. baumannii A390 [1]; +0.06 μg/ml PB, 2nd experiment): 2
- MIC (A. baumannii A390 [1]; without PB, 2nd experiment): 1 µg/mL
- MIC without PB (A. baumannii A390 [1]; [10]): 1 µg/mL
- MIC (A. baumannii A387 [2]; +0.06 μg/ml PB, 2nd experiment): 0.5 µg/mL
- MIC without PB/MIC + PB (A. baumannii A387 [2]; +0.06 μg/ml PB, 2nd experiment): 1
- MIC without PB/MIC + PB (A. baumannii A387 [2]; [11]): 1
- MIC (A. baumannii A387 [2]; without PB, 2nd experiment): 0.5 µg/mL
- MIC without PB (A. baumannii A387 [2]; [10]): 0.5 µg/mL
- MIC (A. baumannii A14 [3]; +0.06 μg/ml PB): 2 µg/mL
- MIC without PB/MIC + PB (A. baumannii A14 [3]; +0.06 μg/ml PB): 1
- MIC (A. baumannii A14 [3]; without PB): 2 µg/mL
- MIC (A. baumannii A401; +0.06 μg/ml PB): 1 µg/mL
- MIC +0.06 μg/ml PB (A. baumannii A401; +0.06 μg/ml polymyxin B, 1st experiment): 1.00 µg/mL
- MIC without PB/MIC + PB (A. baumannii A401; [11]): 2
- MIC (A. baumannii A401; without PB): 1 µg/mL
- MIC without PB (A. baumannii A401; [10]): 2 µg/mL
- MIC +[…] PB (A. baumannii NCTC 13301 [4]; +[…] polymyxin B): 1.00 µg/mL
- MIC without PB/MIC + PB (A. baumannii NCTC 13301 [4]; ratio, PB […]): 8
- MIC without PB (A. baumannii NCTC 13301 [4]; without polymyxin B): 8 µg/mL
- MBC (A. baumannii A489; +[…] PB): 1 µg/mL
- MBC +[…] PB (A. baumannii A489; [9]): 1.00 µg/mL
- MBC (A. baumannii A489; without PB): 1 µg/mL
- MBC without PB (A. baumannii A489; [10]): 1 µg/mL
- MBC (A. baumannii A387 [5]; A. baumannii A387, +0.06 μg/ml PB): 0.5 µg/mL
- MBC +0.06 μg/ml PB (A. baumannii A387 [5]; A. baumannii A387, +0.06 μg/ml polymyxin B, 1st experiment): 0.25 µg/mL
- MBC (A. baumannii A387 [5]; A. baumannii A387, without PB): 0.5 µg/mL
- MBC without PB (A. baumannii A387 [5]; A. baumannii A387, without polymyxin B, 1st experiment): 0.5 µg/mL
- MBC (A. baumannii A14 [6]; A. baumannii A14, +0.06 μg/ml PB): 1 µg/mL
- MBC (A. baumannii A14 [6]; A. baumannii A14, without PB): 2 µg/mL
- MBC (A. baumannii A473; A. baumannii A473, +0.06 μg/ml PB): 0.5 µg/mL
- MBC (A. baumannii A473; A. baumannii A473, without PB): 1 µg/mL
- MBC without PB (A. baumannii A473; A. baumannii A473, without polymyxin B, 1st experiment): 0.5 µg/mL
- MBC (A. baumannii A390 [7]; A. baumannii A390, +0.06 μg/ml PB): 0.5 µg/mL
- MBC (A. baumannii A390 [7]; A. baumannii A390, without PB): 1 µg/mL
- MBC without PB (A. baumannii A390 [7]; A. baumannii A390, without polymyxin B, 1st experiment): 1 µg/mL
- MBC (A. baumannii NCTC 13301 [8]; +[…] PB): 0.5 µg/mL
- MBC +[…] PB (A. baumannii NCTC 13301 [8]; [9]): 1.00 µg/mL
- MBC (A. baumannii NCTC 13301 [8]; without PB): 2 µg/mL
- MBC without PB (A. baumannii NCTC 13301 [8]; [10]): 2 µg/mL
- MIC (A. baumannii A329; +0.06 μg/ml PB, 2nd experiment): 1 µg/mL
- MIC without PB/MIC + PB (A. baumannii A329; +0.06 μg/ml PB, 2nd experiment): 2
- MIC read with alamar blue (A. baumannii A329; +0.06 μg/ml PB, value in parentheses, 2nd experiment): 2 µg/mL
- MIC (A. baumannii A329; without PB, 2nd experiment): 2 µg/mL
- MIC without PB (A. baumannii A329; [10]): 8 µg/mL
